The values below come from patent US5877185A, “Synergistic compositions useful as anti-tumor agents” (priority 1995, dated 1999).

A value given as a limit tells only on which side of the number the result lay.

One data set has as its system Du 145. Nature of the data set: cytotoxicity of INO2 BA with and without BSO, Du 145. The data set is classed as cell-based. The settings on record: Homo sapiens. As for the experimental part: (§1) The concentration of BSO was 1 mM for all cell lines except HT 144, where the concentration was 0.25 mM. Cells were seeded in the recommended growth medium at a density of 1.5×10^4 cell/cm^2 into 2 cm^2 wells. Drugs were added simultaneously 4 hours after seeding, and incubation was continued for 48 hours at 37° C. in a 5% CO2 atmosphere. For assessment of drug effects cells were detached by trypsinization and counted in a hemacytometer.
(§2) Cell lines Nos. 1-4 were obtained from Dr. C. Benz, University of California, San Francisco. MDA 468 and MCF-7 human mammary cancer lines, MCF-7-B-ADR drug-resistant mammary cancer line, Du 145 drug-resistant human prostate cancer line, HT 144 human melanoma cell line, Hep-G2 human hepatocellular carcinoma line, and PC-12 rat pheochromocytoma line were obtained from the University of California Cell Culture Facility.

A further data set relates to U 937. Nature of the data set: cytotoxicity of INO2 BA with and without BSO, U 937. The settings on record: Homo sapiens, INO2 BA alone, 48 hours. The data set is classed as cell-based. How it is done: as §1, §2
Data set [1] is described as follows: non-toxicity in hamsters, intraperitoneal. It is filed as in vivo.
Data set [2] relates to SIVmac239 or virus isolates in CEM ×174 cells. Nature of the data set: SIV replication in CEM ×174 cells, SIV p27 core antigen assay. It is filed as cell-based. The source says:
Infected cell cultures described in FIG. 4 were used for determination of supernatant virus titers by SIV p27 core antigen assay as described in Example XIV. The ordinate represents p27 ELISA performed on day 10 of the assay and the abscissa represents the concentration of INO2 BA alone (rear rows in panels A, B and C) and in combination with BSO (front rows in panels A, B and C).
CEM ×174 cells (3×10^5 /ml) were infected with 3.75 TCID50 /ml (50% tissue culture infectious dosage per ml of cell suspension) stock solution of SIVmac239 or virus isolates from SIVmac239-infected rhesus macaques on day 0. Uniform infection of cells was ensured by the infection of one cell population only per virus preparation. Three days post-infection, the cells were distributed (500 μl/well) into individual wells of a 24-well plate. Fresh medium containing INO2 BA concentrations ranging from 0 to 300 μM and/or BSO concentrations ranging from 0 to 0.25 mM were added to establish final 1-ml reaction volumes, and the cultures were further incubated for 4 days. The wells were then replenished with fresh CEM ×174 cells (3×10^5 /ml), INO2 BA and/or BSO were re-added at the same concentrations as in the original incubates, and incubation was continued for an additional 3 days. This procedure intends to mimic conditions of in vivo chemotherapy. Cell viability and virus titers in the supernatant were determined on day 10 (3 days after the addition of new cells) by the tetrazolium (MTT) method of Hansen et al., J. Immunol. Methods 119:208-210 (1982) and by the SIV p27 and reverse transcriptase (RT) assays described by Chuang et al., FEBS Lett. 326:140-144 (1993), respectively.
SIVmac p27 core antigen levels were determined by an enzyme immunoassay provided by Coulter Corp. (Hialeah, Fla.). The assay was performed according to the manufacturer's specifications.

A further data set deals with pADPRT. Nature of the data set: pADPRT zinc content / zinc ejection. It is filed as biochemical. To be noted: 25° C. How it is done: FIG. 2A is a graph comparing the effects of NOBA and INOBA on the enzyme activity and zinc content of pADPRT. Inactivation was performed as described in Example III. In these experiments ^65 Zn^2+ -labeled pADPRT was used. The Zn^2+ content of pADPRT (upper panel) was determined as follows: two parallels of aliquots (4 μl) were pipetted into 500 μl of ice-cold washing solution (50 mM Tris, pH 7.7, 10 mM 2-mercaptoethanol and 0.5 mM EDTA) then filtered onto GF/C disks presoaked in washing solution (cold), quickly washed 4 times with 1 ml of ice-cold washing solution, dried, and the radioactivity determined. The protein-bound ^65 Zn^2+ is shown as percent of the untreated sample. Enzyme assays (lower panel) were performed as in FIG. 1.
For the release of Zn^2+ from transblotted pADPRT, the enzyme (3 μg per lane) was separated on SDS-PAGE, transblotted onto a nitrocellulose membrane, and renatured in the presence of ^65 ZnCl2. […] After incubation, 1 ml of the supernatant was counted for radioactivity, and the strips were washed 3 times with 2 ml of 50 mM Tris-HCl pH 7.4), 0.5 mM EDTA and 10 Mm 2-mercaptoethanol, and then dried and exposed to X-ray film. The intensity of the autoradiographic spots was quantitated by a scanner. […]

In the next data set the test system is HIV-1 (MN strain). Nature of the data set: infectivity of NOBA-treated HIV-1 virions. To be noted: 3000 or 6000 μM NOBA, 37° C. The data set is classed as cell-based.
Data set [3] relates to leukemic and other malignant human cells. The settings on record: cited from earlier work.
The subject of another data set is HIV-1 NC zinc fingers. To be noted: isolated HIV-1 NC zinc fingers and intact HIV-1 virions; cited from earlier work.
Data set [4] has as its system AZT-resistant rhesus macaque (MMU-23740)-derived SIV. The settings on record: cited from earlier work.

For the molecule `NC(=O)c1ccc(I)c([N+](=O)[O-])c1` [INO2 BA, 4-iodo-3-nitrobenzamide], the IC100 in the data set with Du 145 (DU-145, 48 h, read-out: LD100) was 250 µM; in the data set on U 937 (read-out: LD100) it was 150 µM. The IC50 is 120 µM in the data set with Du 145 (DU-145, INO2 BA alone, 48 hours, read-out: I50) and 65 µM in the data set on U 937 (read-out: I50). The toxic effects entry in [1] (200 mg/kg intraperitoneally daily for 12 days) is “no toxic effects”; in [1] (200 mg/kg intraperitoneally daily for 14 days, twelve hamsters) it was “without toxic effects”. Besides, in data set [2] (INO2 BA alone, FIG. 5A-C), the “SIV p27 formation” value is given as “almost complete inhibition”. Besides, in data set [2] (with BSO, CEM ×174 cells), the “effect of GSH depletion by BSO on inhibitory effect on SIV replication” value is “synergistically enhances”.

As for `NC(=O)c1cccc(N=O)c1` [NOBA, 3-nitrosobenzamide], the “time in which zinc ejection was complete” value in the data set with pADPRT is at most 2 h. Also, the infectivity entry in the data set with HIV-1 (MN strain) is “complete loss of infectivity”. Further, the suppression of proliferation result in data set [3] is “completely suppressed”. In addition, in the data set on HIV-1 NC zinc fingers, the zinc ejection result is recorded as “eject zinc”. In data set [4], the “inhibition of infectious cycle” value is listed as “equally inhibited”.
